Data on 30 molecules can be found in PubChem BioAssay AID179 (DTP/NCI, 2004).

The source made the active and inactive calls.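 The calls were made as follows: active = compounds giving half or more protection of infected cells from virus-caused growth loss, again on retest; inactive = the rest.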

Broadly, the EC50 is the midpoint of the concentration-response curve. By IC50 is commonly meant the concentration that gives 50% inhibition. Read a low IC50 as greater potency.

This assay concerns CEM cells HIV-1 protection, formazan growth assay. The experiment in a line: NCI AIDS Antiviral Assay. The conditions noted are these: for IC50: measured here: growth of uninfected CEM cells. The method in brief:
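Protection of CEM cells against HIV-1 measured as cell growth via soluble formazan read-out, with five concentrations tested on both infected and uninfected cells; failure to protect may reflect toxicity.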

Take `O=c1c2cc(Cl)ccc2sc2cccc(Cl)c12`: the EC50 is > 1.35 µM and the IC50 was > 1.35 µM.
On to `Cc1ccc(/C=C2\CCCC(CN(C)C)C2=O)cc1` (configuration not stated), for which the EC50 is > 200 µM and the IC50 was determined as 0.617 µM.
Turning to `c1cc2n(n1)CCN2`, the EC50 was > 2290 µM and the IC50 was 170 µM.
On to `CC(=O)c1ccc(NC(=O)/C(CC(=O)/C=C/c2ccccc2)=N/NC(N)=S)cc1`, for which the EC50 was > 63.1 µM and the IC50 is > 63.1 µM.
On to `COc1ccc(N2C(=O)C3c4[nH]c5c(C)cccc5c4C4CCC(C(C)(C)C)CC4C3C2=O)cc1` (configuration not stated), for which the EC50 is > 200 µM and the IC50 amounted to 7.94 µM.
Take `Cc1cc(C2(c3cc(C)c(O)c(Br)c3)OS(=O)(=O)c3ccccc32)cc(Br)c1O`: the EC50 was > 200 µM and the IC50 was > 200 µM.
On to `CCCn1c2c(c3ccccc3c1=O)C(=O)c1ccccc1-2`, for which the EC50 was > 18.2 µM and the IC50 was > 18.2 µM.
Regarding `Cc1ccc(N(C(=O)CC(=O)N2N=C(c3ccccc3)C(N=Nc3ccc([N+](=O)[O-])cc3)C2=O)C(=O)c2ccc(Cl)cc2)cc1` (configuration not stated), the EC50 was > 11.5 µM and the IC50 was found to be 9.12 µM.
For `N=C(N)SC(c1ccccc1)C(O)c1ccccc1` (configuration not stated), the EC50 was > 200 µM and the IC50 was found to be 91.2 µM.
`CC#CC(O)(C(=O)OCCCN(C)C)C1CCCCC1` (configuration not stated): the EC50 is > 200 µM and the IC50 was > 200 µM.
In the case of `Cc1ccc(S(=O)(=O)NC(CCC(=O)NNc2ccccc2)C(=O)NNc2ccccc2)cc1` (configuration not stated), the EC50 is > 200 µM.
`O=S1c2ccc(Cl)cc2CC(SSC2Cc3cc(Cl)ccc3S(=O)c3ccccc32)c2ccccc21` (configuration not stated): the EC50 is > 4.68 µM and the IC50 was > 4.68 µM.
Consider `CC1(C)CCC(C)(C)C1C(=O)NC(O)C(=O)O` (configuration not stated), for which the EC50 was > 200 µM and the IC50 is > 200 µM.
As for `O=S(Nc1ccccc1)c1ccccc1Oc1ccccc1` (configuration not stated), the result was inactive.
For the molecule `O=C(O)c1c2c(nc3ccccc13)CCC2`, the EC50 is > 447 µM and the IC50 was > 447 µM.
In the case of `CC(=O)Nc1ccc(OC(C)(C)C)cc1`, the EC50 is > 1200 µM and the IC50 was > 1200 µM.
Turning to `CCOC(=O)/C(=C/c1ccc(C#N)cc1)N(CC)CC`, the EC50 was > 251 µM and the IC50 was > 251 µM.
Turning to `C(=NC12CC3CC(CC(C3)C1)C2)C1CCCCC1`, the EC50 is > 200 µM and the IC50 was > 200 µM.
For the molecule `CCSC1=N/C(=C\c2ccco2)C(=O)N1`, the EC50 was > 200 µM and the IC50 is > 200 µM.
As to `COC(=O)CC(c1ccc(OC)cc1)C(CC(=O)OC)c1ccc(OC)cc1` (configuration not stated), the EC50 is > 67.6 µM and the IC50 is 60.3 µM.
Turning to `NC(=O)N/N=C(\C(=O)C(=O)Nc1ccc(Cl)c(C(F)(F)F)c1)c1nc2ccc(C(=O)c3ccccc3)cc2[nH]c1=O`, the EC50 was > 61.7 µM and the IC50 was > 61.7 µM.
In the case of `CC(=O)OC1CCC2(C)CC3C=CC2(OO3)C1(C)C` (configuration not stated), the EC50 is > 200 µM and the IC50 stood at 10.7 µM.
Regarding `CC1C2CC(C(S(=O)(=O)O)C2=O)C1(C)C` (configuration not stated), the EC50 is > 1000 µM and the IC50 is > 1000 µM.
As to `CN(C)CCC(/C=C/c1ccccc1)=N\Nc1c(F)c(F)c(F)c(F)c1F`, the outcome was inactive.
`CC1(C)/C(=N\O)C2(C#N)CCC1C2` (configuration not stated): the EC50 was > 200 µM and the IC50 came to 166 µM.
Consider `CCCc1cc(=O)oc2c3c(c4c(c12)OC(C)(C)C=C4)O[C@@H](C)[C@H](C)C3=O`, for which the EC50 is 4.9 µM and the IC50 came out at 97.7 µM.
As for `COC(=O)c1cc2c(cc1CC(Cc1ccc3c(c1)CCCC3)C(=O)OC)CCCC2` (configuration not stated), the EC50 is > 200 µM and the IC50 is 57.5 µM.
Consider `COc1cc(NS(=O)(=O)c2ccc(N)cc2)nc(OC)n1`, for which the EC50 is > 200 µM and the IC50 is > 200 µM.
For the molecule `COc1cccc(Nc2nc(N)nc(N)c2N)c1`, the EC50 was > 200 µM and the IC50 was 26.3 µM.
For the molecule `CC(C)N1CC2CC(CN(C(=O)c3ccccc3)C2)C1`, the EC50 was > 676 µM and the half-maximal inhibitory concentration (IC50) was > 676 µM.
